# Source: US8039514B2, “Sulfonamide compounds and use thereof” (Asahi Kasei Pharma Corporation, priority 2008, dated 2011)
# Biological target: T1, human calcium-sensing receptor (CaSR) (Homo sapiens, UniProt P41180)
# T1 construct: expressed in transfected cells
# T1 sequence (P41180 20-1078): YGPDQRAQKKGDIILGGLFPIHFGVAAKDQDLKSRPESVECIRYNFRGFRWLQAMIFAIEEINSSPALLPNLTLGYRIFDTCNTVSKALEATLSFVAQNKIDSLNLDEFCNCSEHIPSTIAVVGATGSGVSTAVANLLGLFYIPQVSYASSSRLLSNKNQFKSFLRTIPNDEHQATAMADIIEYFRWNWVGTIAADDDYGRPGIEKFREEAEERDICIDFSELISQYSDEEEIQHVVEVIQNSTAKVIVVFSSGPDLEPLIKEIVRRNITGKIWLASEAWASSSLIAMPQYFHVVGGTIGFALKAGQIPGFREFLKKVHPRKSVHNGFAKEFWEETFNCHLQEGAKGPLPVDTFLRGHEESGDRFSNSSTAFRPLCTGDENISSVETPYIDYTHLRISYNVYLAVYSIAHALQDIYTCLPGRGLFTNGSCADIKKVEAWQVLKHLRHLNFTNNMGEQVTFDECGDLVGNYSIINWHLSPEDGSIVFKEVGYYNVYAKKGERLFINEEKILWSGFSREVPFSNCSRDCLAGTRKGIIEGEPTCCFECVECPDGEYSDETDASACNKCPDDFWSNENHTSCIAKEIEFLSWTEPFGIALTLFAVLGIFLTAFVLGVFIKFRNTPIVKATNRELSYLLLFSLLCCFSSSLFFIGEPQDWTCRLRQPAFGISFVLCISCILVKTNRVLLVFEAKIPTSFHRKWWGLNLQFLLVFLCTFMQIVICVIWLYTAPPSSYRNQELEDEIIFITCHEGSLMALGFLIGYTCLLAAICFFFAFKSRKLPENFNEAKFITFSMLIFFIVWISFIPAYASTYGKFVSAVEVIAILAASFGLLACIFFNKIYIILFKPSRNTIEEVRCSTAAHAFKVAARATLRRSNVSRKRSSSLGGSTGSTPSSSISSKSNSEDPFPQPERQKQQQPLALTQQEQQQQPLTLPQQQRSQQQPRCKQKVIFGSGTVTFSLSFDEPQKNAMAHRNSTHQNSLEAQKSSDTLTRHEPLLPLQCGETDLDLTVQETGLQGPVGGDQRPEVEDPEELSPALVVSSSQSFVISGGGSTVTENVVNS
# Assay: intracellular Ca assay, CaSR antagonist activity in HEK293/hCaSR cells
# Type: cell-based
# Conditions: Fura2-AM, inhibition of response to calcium chloride ligand solution, read-out: IC50 values according to the intracellular Ca assay (CaSR antagonist activity)
# Protocol: HEK293 cells stably expressing human calcium-sensing receptor (CaSR) (termed HEK293/hCaSR cells) were used. HEK293/hCaSR cells were cultured in a culture medium [DMEM medium containing 0.5 mg/mL Geneticin, 50 Unit/mL penicillin, 50 μg/mL streptomycin and 10% fetal bovine serum (FBS), all manufactured by Invitrogen] to semiconfluent in an incubator at 37° C. under 5% carbon dioxide atmosphere.
# Cultured cells were washed with phosphate buffered saline (PBS(−), manufactured by Dainippon Sumitomo Pharmaceutical Company) which had been prewarmed to 37° C., added with PBS(−) containing 10 mM ethylenediamine tetraacetic acid (EDTA), and then incubated in an incubator at 37° C. for 10 minutes. After adding the culture medium to separate the cells, cell suspension was transferred to a centrifuge tube. Cells were collected by centrifuge at 1,500 rpm for 3 minutes, and resuspended in Ca assay buffer [20 mM HEPES buffer (pH 7.4), 115 mM sodium chloride, 5.4 mM potassium chloride, 0.8 mM magnesium chloride, 0.8 mM calcium chloride, 13.8 mM D(+)-glucose (all manufactured by Wako Pure Chemicals) and 0.1% bovine serum albumin (manufactured by SIGMA)] containing 0.2% Pluronic F-127 (manufactured by Molecular Probes) and […] Fura2-AM (manufactured by DOJINDO LABORATORIES) to obtain a cell suspension of 5×10^6 cells/mL. After incubating at 37° C. for 30 minutes, the cells were washed twice with the Ca assay buffer and suspended in the same buffer to obtain a cell suspension of 1×10^6 cells/60 μL. 60 μL of the cell suspension was aliquoted to each well of a 96 well UV microplate (manufactured by Corning Co.) to give a cell plate.
# The test compound was diluted with the Ca assay buffer to five times the final concentration and then 80 μL of the diluted compound was applied to each well of a 96 well round bottomed microplate (manufactured by Corning Co.) to give a sample plate. 80 μL of the Ca assay buffer containing 7.5 mM calcium chloride (i.e., ligand solution) was applied to each well of a 96 well round bottomed microplate to give a ligand plate. Then, thus prepared sample plate, ligand plate, and the cell plate were placed in Functional Drug Screening System (FDSS) 4000 (manufactured by Hamamatsu Photonics K.K.) which had been preswitched on and prewarmed to 37° C. Measurements were then carried out as follows. After incubating the cell plate for 180 seconds, fluorescence intensity was measured every two seconds (excitation wavelength; 340 nm and 380 nm, measurement wavelength; 500 nm). After the measurement for 40 seconds, 20 μL of the test compound solution from the sample plate was added to the cell plate, followed by continuous measurement for 160 seconds. Then, 20 μL of the ligand solution from the ligand plate was added to the cell plate, followed by continuous measurement for 100 seconds.
# Amount of change in intracellular Ca concentration is indicated as a peak height of the ratio of the fluorescence intensity with excitation of 340 nm and 380 nm (i.e., fluorescence intensity with excitation at 340 nm/fluorescence intensity with excitation at 380 nm) that is obtained from the difference between the maximum ratio after adding the ligand solution and the ratio before adding the ligand solution. Further, when the peak height obtained from the Ca assay buffer containing no test compound has inhibition ratio of 0% while the peak height obtained from the Ca assay buffer containing no calcium chloride as a ligand solution has inhibition ratio of 100%, inhibition ratio for each test compound (i.e., CaSR antagonist activity) was calculated.
row,SMILES,IC50
1,"Cc1cc(-c2cccc(S(=O)(=O)N(C)C[C@H](O)CNC(C)(C)CC3Cc4ccccc4C3)c2)ccc1C(=O)O [Exp. 3-52, (R)-3′-(N-(3-(1-(2,3-dihydro-1H-inden-2-yl)-2-methylpropan-2-ylamino)-2-hydroxypropyl)-N-methylsulfamoyl)-3-methylbiphenyl-4-carboxylic acid]",300 to 1000 nM
2,"CCc1cc(-c2ccc(CC(=O)O)cc2)ccc1S(=O)(=O)N(C)C[C@H](O)CNC(C)(C)CC1Cc2ccccc2C1 [Exp. 3-147, (R)-2-(4′-(N-(3-(1-(2,3-dihydro-1H-inden-2-yl)-2-methylpropan-2-ylamino)-2-hydroxypropyl)-N-methylsulfamoyl)-3′-ethylbiphenyl-4-yl)acetic acid]",≤ 300 nM
3,"CCc1cc(-c2c(F)cccc2CCC(=O)O)ccc1S(=O)(=O)N(C)C[C@H](O)CNC(C)(C)CCCc1ccccc1 [Exp. 5-74, (R)-3-(3′-ethyl-6-fluoro-4′-(N-(2-hydroxy-3-(2-methyl-5-phenylpentan-2-ylamino)propyl)-N-methylsulfamoyl)biphenyl-2-yl)propionic acid]",≤ 300 nM
4,"CN(C[C@H](O)CNC(C)(C)CC1Cc2ccccc2C1)S(=O)(=O)c1ccc(-c2cccc(CCC(=O)O)n2)c(Cl)c1 [Exp. 9-161, (R)-3-(6-(2-chloro-4-(N-(3-(1-(2,3-dihydro-1H-inden-2-yl)-2-methylpropan-2-ylamino)-2-hydroxypropyl)-N-methylsulfamoyl)phenyl)pyridin-2-yl)propionic acid]",≤ 300 nM
5,"CN(C[C@H](O)CNC(C)(C)CC1Cc2ccccc2C1)S(=O)(=O)c1cc(-c2ccc(CC(=O)O)cc2)cc(C(F)(F)F)c1 [Exp. 3-133, (R)-2-(3′-(N-(3-(1-(2,3-dihydro-1H-inden-2-yl)-2-methylpropan-2-ylamino)-2-hydroxypropyl)-N-methylsulfamoyl)-5′-(trifluoromethyl)biphenyl-4-yl)acetic acid]",≤ 300 nM
6,"CCc1cc(-c2ccc(CCC(=O)O)cc2)ccc1S(=O)(=O)N(C)C[C@H](O)CNC(C)(C)CCCc1ccccc1F [Exp. 9-89, (R)-3-(3′-ethyl-4′-(N-(3-(5-(2-fluorophenyl)-2-methylpentan-2-ylamino)-2-hydroxypropyl)-N-methylsulfamoyl)biphenyl-4-yl)propionic acid]",≤ 300 nM
7,"CN(C[C@H](O)CNC(C)(C)Cc1ccc2ccccc2c1)S(=O)(=O)c1cccc(-c2ccc(C(=O)O)c(N)c2)c1 [Exp. 3-10, (R)-3-amino-3′-(N-(2-hydroxy-3-(2-methyl-1-(naphthalen-2-yl)propan-2-ylamino)propyl)-N-methylsulfamoyl)biphenyl-4-carboxylic acid]",≤ 300 nM
8,"CCc1cc(-c2c(F)cccc2CCC(=O)O)ccc1S(=O)(=O)N(C)C[C@H](O)CNC(C)(C)CCCc1ccsc1 [Exp. 8-24, (R)-3-(3′-ethyl-6-fluoro-4′-(N-(2-hydroxy-3-(2-methyl-5-(thiophen-3-yl)pentan-2-ylamino)propyl)-N-methylsulfamoyl)biphenyl-2-yl)propionic acid]",≤ 300 nM
9,"CCc1cc(-c2ccc(CCC(=O)O)cc2Cl)ccc1S(=O)(=O)N(C)C[C@H](O)CNC(C)(C)CC1Cc2ccccc2C1 [Exp. 5-16, (R)-3-(2-chloro-4′-(N-(3-(1-(2,3-dihydro-1H-inden-2-yl)-2-methylpropan-2-ylamino)-2-hydroxypropyl)-N-methylsulfamoyl)-3′-ethylbiphenyl-4-yl)propionic acid]",≤ 300 nM
10,"CN(C[C@H](O)CNC(C)(C)CCCc1ccccc1)S(=O)(=O)c1cc(OCC(=O)O)cc(C(F)(F)F)c1 [Exp. 9-179, (R)-2-(3-(N-(2-hydroxy-3-(2-methyl-5-phenylpentan-2-ylamino)propyl)-N-methylsulfamoyl)-5-(trifluoromethyl)phenyloxy)acetic acid]",≤ 300 nM
11,"CN(C[C@H](O)CNC(C)(C)CCCc1ccccc1)S(=O)(=O)c1ccc(-c2ccc(CCC(=O)O)cc2)c(Cl)c1 [Exp. 3-114, (R)-3-(2′-chloro-4′-(N-(2-hydroxy-3-(2-methyl-5-phenylpentan-2-ylamino)propyl)-N-methylsulfamoyl)biphenyl-4-yl)propionic acid]",≤ 300 nM
